Tests used:
[1] = test system: Leishmania donovani; assay: Antileishmanial activity against amastigotes of Leishmania donovani Khartoum infected in golden hamster assessed as reduction of parasite level in liver at 52 mg/kg bid for 4 days; assay type: functional; design: scale not given: the % may be the effect or the level left
[2] = test system: Leishmania donovani; assay: Antileishmanial activity against amastigotes of Leishmania donovani Khartoum infected in golden hamster assessed as reduction of parasite level in liver at 13 mg/kg bid for 4 days; assay type: functional; design: scale not given: the % may be the effect or the level left
[3] = test system: Syrian golden hamster; assay: Toxicity in amastigotes of Leishmania donovani Khartoum infected golden hamster at 208 mg/kg bid for 4 days; assay type: organism-based, Mesocricetus auratus; design: dose 208 mg/kg; conditions: in vivo, 96 h
[4] = test system: Leishmania donovani; assay: Ratio of glucantime SD50 to compound SD50 for amastigotes of Leishmania donovani Khartoum infected in golden hamster; assay type: functional

CCN(CC)CCCCCCNc1cc(OC)cc2c(C)c3ccccc3nc12
Activity [1]: 53%
Activity [2]: 36%
Activity [3]: Toxic
Ratio [4]: 0.2

From ChEMBL document CHEMBL3243940, “Primaquine analogues: derivatives of 4-amino-2-methoxyacridine” (J Med Chem, 1979)
